In brackets after ≈: the same amount, converted by molar mass. Activity calls are given as the source filed them. No cut-off for these calls is given here.
Columns and labels:
KB [1] = assay: Cytotoxicity against human KB cells at 25 ug/ml after 48 hrs; format: functional, cell-based
P388 [2] = assay: Cytotoxicity against mouse P388 cells at 25 ug/ml after 48 hrs; format: functional, cell-based
LX-1 [3] = assay: In vivo antitumor activity against human LX1 cells at 1200 mg/kg administered on day 1, 5 and 9 relative to control; format: functional
LX-1 [4] = assay: In vivo antitumor activity against human LX1 cells at 600 mg/kg administered on day 1, 5 and 9 relative to control; format: functional
LX-1 [5] = assay: In vivo antitumor activity against human LX1 cells at 300 mg/kg administered on day 1, 5 and 9 relative to control; format: functional
MX1 [6] = assay: In vivo antitumor activity against human MX1 cells at 1200 mg/kg administered on day 1, 5 and 9 relative to control; format: functional
MX1 [7] = assay: In vivo antitumor activity against human MX1 cells at 600 mg/kg administered on day 1, 5 and 9 relative to control; format: functional
MX1 [8] = assay: In vivo antitumor activity against human MX1 cells at 300 mg/kg relative to control on day 1, 5 and 9 relative to control; format: functional
MX1 [9] = assay: In vivo antitumor activity against human MX1 cells at 150 mg/kg administered on day 1, 5 and 9 relative to control; format: functional
P388 [10] = assay: In vivo antitumor activity against mouse P388 cells at 320 mg/kg for 1 to 9 days relative to control; format: functional
P388 [11] = assay: In vivo antitumor activity against mouse P388 cells at 160 mg/kg for 1 to 9 days relative to control; format: functional
P388 [12] = assay: In vivo antitumor activity against mouse P388 cells at 80 mg/kg for 1 to 9 days relative to control; format: functional
P388 [13] = assay: In vivo antitumor activity against mouse P388 cells at 40 mg/kg for 1 to 9 days relative to control; format: functional
P388 [14] = assay: In vivo antitumor activity against mouse P388 cells at 100 mg/kg for 1 to 10 days relative to control; format: functional
P388 [15] = assay: In vivo antitumor activity against mouse P388 cells at 50 mg/kg for 1 to 10 days relative to control; format: functional
P388 [16] = assay: In vivo antitumor activity against mouse P388 cells at 25 mg/kg for 1 to 10 days relative to control; format: functional
P388 [17] = assay: In vivo antitumor activity against mouse P388 cells at 320 mg/kg administered on day 1, 5 and 9 relative to control; format: functional
P388 [18] = assay: In vivo antitumor activity against mouse P388 cells at 160 mg/kg administered on day 1, 5 and 9 relative to control; format: functional
P388 [19] = assay: In vivo antitumor activity against mouse P388 cells at 80 mg/kg administered on day 1, 5 and 9 relative to control; format: functional
P388 [20] = assay: In vivo antitumor activity against mouse P388 cells at 40 mg/kg administered on day 1, 5 and 9 relative to control; format: functional
KB [21] = assay: Cytotoxicity against human KB cells after 48 hrs; format: functional; settings: read-out: ED50 (the source's name)
P388 [22] = assay: Cytotoxicity against mouse P388 cells after 48 hrs; format: functional; settings: P388, 48 h, read-out: ED50 (the source's name)
B16 [23] = assay: In vivo antitumor activity against mouse B16 cells at 200 mg/kg for 1 to 9 days relative to control; format: functional
B16 [24] = assay: In vivo antitumor activity against mouse B16 cells at 100 mg/kg for 1 to 9 days relative to control; format: functional
B16 [25] = assay: In vivo antitumor activity against mouse B16 cells at 50 mg/kg for 1 to 9 days relative to control; format: functional
[26] = In vivo antitumor activity against mouse CD8F1 cells at 2000 mg/kg on day 24 relative to control; format: functional
[27] = In vivo antitumor activity against mouse CD8F1 cells at 1000 mg/kg administered on day 24 relative to control; format: functional
[28] = In vivo antitumor activity against mouse CD8F1 cells at 500 mg/kg administered on day 24 relative to control; format: functional
[29] = In vivo antitumor activity against mouse CD8F1 cells at 250 mg/kg administered on day 24 relative to control; format: functional
[30] = In vivo antitumor activity against mouse CD8F1 cells at 125 mg/kg administered on day 24 relative to control; format: functional
CX-1 [31] = assay: In vivo antitumor activity against human CX-1 cells at 600 mg/kg administered on day 1, 5, 9 and 13 relative to control; format: functional
CX-1 [32] = assay: In vivo antitumor activity against human CX-1 cells at 300 mg/kg administered on day 1, 5, 9 and 13 relative to control; format: functional
CX-1 [33] = assay: In vivo antitumor activity against human CX-1 cells at 150 mg/kg administered on day 1, 5,9 and 13 relative to control; format: functional
CX-1 [34] = assay: In vivo antitumor activity against human CX-1 cells at 75 mg/kg administered on day 1, 5,9 and 13 relative to control; format: functional
Colon 26 [35] = assay: In vivo antitumor activity against mouse Colon 26 cells at 320 mg/kg administered on day 1, 5 and 9 relative to control; format: functional
Colon 26 [36] = assay: In vivo antitumor activity against mouse Colon 26 cells at 160 mg/kg administered on day 1, 5 and 9 relative to control; format: functional
Colon 26 [37] = assay: In vivo antitumor activity against mouse Colon 26 cells at 80 mg/kg administered on day 1, 5 and 9 relative to control; format: functional
Colon 26 [38] = assay: In vivo antitumor activity against mouse Colon 26 cells at 40 mg/kg administered on day 1, 5 and 9 relative to control; format: functional
MC-38 [39] = assay: In vivo antitumor activity against mouse Colon 38 cells at 200 mg/kg administered on day 2 and 9 relative to control; format: functional
MC-38 [40] = assay: In vivo antitumor activity against mouse Colon 38 cells at 100 mg/kg administered on day 2 and 9 relative to control; format: functional
MC-38 [41] = assay: In vivo antitumor activity against mouse Colon 38 cells at 50 mg/kg administered on day 2 and 9 relative to control; format: functional
L1210 [42] = assay: In vivo antitumor activity against mouse L1210 cells at 320 mg/kg administered on day 1 and 9 relative to control; format: functional
L1210 [43] = assay: In vivo antitumor activity against mouse L1210 cells at 160 mg/kg administered on day 1 and 9 relative to control; format: functional
L1210 [44] = assay: In vivo antitumor activity against mouse L1210 cells at 80 mg/kg administered on day 1 and 9 relative to control; format: functional
L1210 [45] = assay: In vivo antitumor activity against mouse L1210 cells at 40 mg/kg administered on day 1 and 9 relative to control; format: functional
L1210 [46] = assay: In vivo antitumor activity against mouse L1210 cells at 320 mg/kg administered on day 1, 5 and 9 relative to control; format: functional
L1210 [47] = assay: In vivo antitumor activity against mouse L1210 cells at 160 mg/kg administered on day 1, 5 and 9 relative to control; format: functional
L1210 [48] = assay: In vivo antitumor activity against mouse L1210 cells at 80 mg/kg administered on day 1, 5 and 9 relative to control; format: functional
L1210 [49] = assay: In vivo antitumor activity against mouse L1210 cells at 40 mg/kg administered on day 1, 5 and 9 relative to control; format: functional
[50] = system: Lewis lung carcinoma cell line; assay: In vivo antitumor activity against mouse LLC cells at 200 mg/kg for 1 to 9 days relative to control; format: functional
[51] = system: Lewis lung carcinoma cell line; assay: In vivo antitumor activity against mouse LLC cells at 100 mg/kg for 1 to 9 days relative to control; format: functional
[52] = system: Lewis lung carcinoma cell line; assay: In vivo antitumor activity against mouse LLC cells at 50 mg/kg for 1 to 9 days relative to control; format: functional
[53] = system: Lewis lung carcinoma cell line; assay: In vivo antitumor activity against mouse LLC cells at 25 mg/kg for 1 to 9 days relative to control; format: functional
LX-1 [54] = assay: In vivo antitumor activity against human LX1 cells at 2400 mg/kg administered on day 1, 5 and 9 relative to control; format: functional

COc1cc2cnc3c4cc(OC)c(OC(C)=O)cc4ccc3c2cc1OC
Activity (KB [1]): inactive | Activity (P388 [2]): inactive

COc1cc2c(ccc3c4cc(OC)c(OC)cc4c[n+](C)c23)cc1O.[Cl-] [FAGARONINE]
T/C (LX-1 [3]): 46% | T/C (LX-1 [4]): 79% | T/C (LX-1 [5]): 107% | T/C (MX1 [6]): 68% | T/C (MX1 [7]): 79% | T/C (MX1 [8]): 74% | T/C (MX1 [9]): 83% | T/C (P388 [10]): 205% | T/C (P388 [11]): 270% | T/C (P388 [12]): 210% | T/C (P388 [13]): 190% | T/C (P388 [14]): 265% | T/C (P388 [15]): 210% | T/C (P388 [16]): 90% | T/C (P388 [17]): 270% | T/C (P388 [18]): 215% | T/C (P388 [19]): 180% | T/C (P388 [20]): 190% | EC50 (KB [21]): 0.57 µg/mL | EC50 (P388 [22]): 0.18 µg/mL | T/C (B16 [23]): 100% | T/C (B16 [24]): 97% | T/C (B16 [25]): 108% | T/C [26]: 121% | T/C [27]: 89% | T/C [28]: 134% | T/C [29]: 190% | T/C [30]: 137% | T/C (CX-1 [31]): 75% | T/C (CX-1 [32]): 51% | T/C (CX-1 [33]): 42% | T/C (CX-1 [34]): 49% | T/C (Colon 26 [35]): 138% | T/C (Colon 26 [36]): 120% | T/C (Colon 26 [37]): 121% | T/C (Colon 26 [38]): 117% | T/C (MC-38 [39]): 81% | T/C (MC-38 [40]): 89% | T/C (MC-38 [41]): 139% | T/C (L1210 [42]): 161% | T/C (L1210 [43]): 145% | T/C (L1210 [44]): 159% | T/C (L1210 [45]): 137% | T/C (L1210 [46]): 137% | T/C (L1210 [47]): 136% | T/C (L1210 [48]): 145% | T/C (L1210 [49]): 143% | T/C [50]: 134% | T/C [51]: 125% | T/C [52]: 113% | T/C [53]: 111% | T/C (LX-1 [54]): 65%

COc1cc2c(ccc3c4cc(OC)c(OC)cc4cnc23)cc1O
Activity (KB [1]): inactive | EC50 (P388 [22]): 36.5 µg/mL (≈ 109 µM)

COc1cc2c(cnc3c4cc(OC)c(O)cc4ccc23)cc1O
EC50 (KB [21]): 22.4 µg/mL (≈ 69.7 µM) | EC50 (P388 [22]): 13 µg/mL (≈ 40.5 µM)

COc1cc2cnc3c4cc(OC)c(OC)cc4ccc3c2cc1OC
Activity (KB [1]): inactive | Activity (P388 [2]): inactive

COc1cc2c(cnc3c4cc(OC)c(OC(C)=O)cc4ccc23)cc1OC(C)=O
EC50 (KB [21]): 50 µg/mL (≈ 123 µM) | EC50 (P388 [22]): 12.5 µg/mL (≈ 30.8 µM)

From ChEMBL document CHEMBL1151613, “Potential anticancer agents XXXI. N-demethylation of fagaronine” (1984)
